According to patent US20180179499A1, “BIOBASED PRODUCTION OF FUNCTIONALIZED ALPHA-SUBSTITUTED ACRYLATES AND C4-DICARBOXYLATES” (BIOAMBER INC., priority 2015, published 2018):

Assays:
[1] = system: potential yeast hosts (I. orientalis, S. cerevisiae); assay: Tolerance of potential yeast hosts: maximum concentration in which growth was detected; format: cell-based
Method: (§1) Two eukaryotic strains, I. orientalis and S. cerevisiae, were tested at pH 3 and pH 5. Three bacterial strains were tested using their individual optimal conditions. E. coli and C. glutamicum were tested at pH 8 and 30° C., and B. firmus was tested at pH 9 and 37° C. I. orientalis was grown in defined yeast media consisting of 5 g/L ammonium sulfate, 0.5 g/L magnesium sulfate heptahydrate, 3 g/L potassium phosphate monobasic, 10 g/L dextrose, 1 mL/L of 10% glycerol stock, 1 mL/L of 1000× trace. The 1000× trace stock solution contains 4 g/L ZnSO4.7H2O, 2 g/L FeSO4.7H2O, 1 g/L MnSO4.H2O, 0.2 g/L CuSO4.5H2O, and 0.8 mL/L H2SO4. S. cerevisiae was grown in buffered defined dextrose media consisting of 50 g/L dextrose, 5 g/L yeast extract, and 40 mL/L 25× DM salts. The 25× DM salt stock solution contains 125 g/L ammonium sulfate, 12.5 g/L magnesium sulfate heptahydrate, 75 g/L potassium phosphate monobasic, and 787.5 g/L water. The bacterial strains were grown in standard LB media consisting of 10 g/L bacto-tryptone, 5 g/L yeast extract, 10 g/L NaCl, and 20 g/L dextrose with addition of 20 g/L glucose.
(§2) Time points were taken over a period of at least 8 hours and up to 24 hours to calculate the rate of growth. Specific growth rate was determined by plotting the natural logarithm of cell number against time. Tolerance was determined by growth rate of cells in the presence of the compound as compared to in the absence of the compound.
(§3) Two eukaryotic strains, I. orientalis and S. cerevisiae, were tested for tolerance to the selected compounds at pH 3 and pH 5. The bacterial strains were grown at their individual optimal conditions, E coli and C. glutamicum at pH 8 and 30° C., and B. firmus and B. cohnii at pH 9 and 37° C. I. orientalis was grown in defined yeast media consisting of 5 g/L ammonium sulfate, 0.5 g/L magnesium sulfate heptahydrate, 3 g/L potassium phosphate monobasic, 10 g/L dextrose, 1 mL/L of 10% glycerol stock, 1 mL/L of 1000× trace. The 1000× trace stock solution contains 4 g/L ZnSO4.7H2O, 2 g/L FeSO4.7H2O, 1 g/L MnSO4.H2O, 0.2 g/L CuSO4.5H2O, and 0.8 mL/L H2SO4. S. cerevisiae was grown in buffered defined dextrose media consisting of 50 g/L dextrose, 5 g/L yeast extract, and 40 mL/L 25×DM salts. The 25×DM salt stock solution contains 125 g/L ammonium sulfate, 12.5 g/L magnesium sulfate heptahydrate, 75 g/L potassium phosphate monobasic, and 787.5 g/L water. The bacterial strains were grown in standard LB media consisting of 10 g/L bacto-tryptone, 5 g/L yeast extract, 10 g/L NaCl, and 20 g/L dextrose with addition of 20 g/L glucose.
as §2

[2] = system: potential bacterial hosts (E. coli, C. glutamicum, B. firmus, B. cohnii); assay: Tolerance of potential bacterial hosts: highest concentration with growth observed; format: cell-based; settings: Table L
Method: as §1, §2, §3, §2

[3] = Synthase activity assay (DTNB, lysates of BL21 E. coli expressing the candidate); format: biochemical; settings: 0.5 mM hydroxypyruvate
Method: E coli optimized genes encoding synthases were synthesized and cloned into pTrcHisA (Life Technologies (formerly Invitrogen)). Synthase genes tested are found in Table G. Plasmids containing the optimized synthase genes were transformed into BL21 E. coli cells. Empty plasmid pTrcHisA was also transformed as a negative control. […]. Flasks were incubated at 30° C. at 250 rpm shaking for 2 hours, then protein production was induced with 0.2 mM IPTG and incubated for 4 more hours at 30° C. while shaking. Cells were harvested by centrifugation and pellets were stored at −80° C.
Activity of synthase candidates was assessed with an in vitro assay using DTNB (5,5′-Dithiobis(2-nitrobenzoic acid)) as an indicator. The enzyme activity was tested using either no substrate or hydroxypyruvate as the substrate. The DTNB interacts with the free thio created by the condensation of acetyl-CoA and the substrate present. Unless otherwise specified, all chemicals were purchased from Sigma-Aldrich Chemical Company, St. Louis, Mo.
Cells were lysed using mechanical disruption using a BeadBeater (BopSpec products, Bartlesville, Okla.) following the manufacturer's instructions. The cell lysate was partially clarified by centrifugation (14,000G for 5 minutes). Protein concentrations of the resulting clarified lysates were measured via BioRad total Protein assay using the manufacturer's instructions. Lysates were normalized by protein concentration in 100 mM Tris buffer. The normalized lysates were diluted 1 to 7 in 100 mM Tris buffer. 20 μl of lysate was added to each well for the 96-well plate assay. Each condition was performed in triplicate.
The reaction mixture contains 100 mM Tris pH 7.4, 5 mM MgSO4, 0.2 mM acetyl-CoA, 0.5 mM DTNB, 0.5 mM substrate, hydroxypyruvate. To start the reaction, 180 μl of reaction mix was added to each well already containing 20 μl lysate. The reactions in these microplates were monitored at 412 nm. Readings were taken every 9 seconds for 10 minutes and the data was used to calculate activities of each enzyme. Synthase activity was observed when hydroxypyruvate was the substrate as compared to cells containing empty vector (FIG. 20(a), Table G). Background absorbance as measured by the same reaction with no substrate present were subtracted. Error bars in the graphs reflect the standard deviations calculated for the averages for each condition performed in triplicate. Specific mutations change the activity of the enzymes tested (FIG. 20(b), Table H). Further enzyme engineering will improve specificity and activity of desired enzymatic reaction.

[4] = Table G, 0.2 mM acetyl-CoA, pH 7.4, no-substrate background subtracted
[5] = Table H, wild type and mutant synthases

Question: Which “Max conc (maximum concentration in which growth was detected)” value (shortened to “Max conc”) ([1]; Table E) does the source give for CC(C)C(O)(CC(=O)O)C(=O)O (stereo not shown) [2-isopropylmalic acid] here?
Answer: 50 g/L

Question: With CC(C)C(C(=O)O)C(O)C(=O)O (stereo not shown) [3-isopropylmalic acid] as the molecule, how does the “Max conc” value ([1]; Table E) read?
Answer: 50 g/L

Question: For C=C(CO)C(=O)OCC [Ethyl hydroxymethyl acrylate], which “Max conc” value ([1]; Table K) is on record?
Answer: 20 g/L

Question: What does the source list for C=CC(=O)OCCO [Hydroxyethyl acrylate]?
Answer: Max conc (maximum concentration in which growth was detected) [2]: 20 g/L; Max conc (maximum concentration in which growth was detected) ([1]; Table K): 5 g/L

Question: With C=CC(=O)OCO [Hydroxymethyl acrylate] as the molecule, how does the “Max conc” value [2] read?
Answer: 20 g/L

Question: What about the “Max conc” value ([1]; Table K) of the same molecule?
Answer: 20 g/L

Question: What does the source list for C=C1CCOC1=O [MBL]?
Answer: Max conc (maximum concentration in which growth was detected) [2]: 5 g/L; Max conc (maximum concentration in which growth was detected) ([1]; Table K): 5 g/L

Question: What does the source list for C=C1CC(C)OC1=O (stereo not shown) [MeMBL, methyl 2-methylene 4 butyrolactone]?
Answer: Max conc (maximum concentration in which growth was detected) [2]: 5 g/L; Max conc (maximum concentration in which growth was detected) ([1]; Table K): 5 g/L

Question: Which “Activity with hydroxy pyruvate” value [3, 4] does the source give for “AvNifV: candidate synthase NifV, Azotobacter vinelandii, GenBank AAA22169” here?
Answer: 0.054 µmol/min/mg

Question: With Methyl hydroxyethyl acrylate as the molecule, how does the “Max conc” value [2] read?
Answer: 20 g/L

Question: What about the “Max conc” value ([1]; Table K) of the same molecule?
Answer: 5 g/L

B1: ScLys20: candidate synthase lys20, Saccharomyces cerevisiae, GenBank CAA58264 (protein, UniProt P48570 1-428, looked up)
Homocitrate synthase, …: MTAAKPNPYAAKPGDYLSNVNNFQLIDSTLREGEQFANAFFDTEKKIEIARALDDFGVDYIELTSPVASEQSRKDCEAICKLGLKAKILTHIRCHMDDAKVAVETGVDGVDVVIGTSKFLRQYSHGKDMNYIAKSAVEVIEFVKSKGIEIRFSSEDSFRSDLVDLLNIYKTVDKIGVNRVGIADTVGCANPRQVYELIRTLKSVVSCDIECHFHNDTGCAIANAYTALEGGARLIDVSVLGIGERNGITPLGGLMARMIVAAPDYVKSKYKLHKIRDIENLVADAVEVNIPFNNPITGFCAFTHKAGIHAKAILANPSTYEILDPHDFGMKRYIHFANRLTGWNAIKARVDQLNLNLTDDQIKEVTAKIKKLGDVRSLNIDDVDSIIKNFHAEVSTPQVLSAKKNKKNDSDVPELATIPAAKRTKPSA
Question: For B1, which “Activity with hydroxy pyruvate” value [3, 4] is on record?
Answer: 0.095 µmol/min/mg

B2: SpLys4mt1: Lys4 mutant D123N, Schizosaccharomyces pombe (protein, UniProt Q9Y823 1-418, looked up, variant D123N)
chain: MSVSEANGTETIKPPMNGNPYGPNPSDFLSRVNNFSIIESTLREGEQFANAFFDTEKKIQIAKALDNFGVDYIELTSPVASEQSRQDCEAICKLGLKCKILTHIRCHMDDARVAVETGVDGVNVVIGTSQYLRKYSHGKDMTYIIDSATEVINFVKSKGIEVRFSSEDSFRSDLVDLLSLYKAVDKIGVNRVGIADTVGCATPRQVYDLIRTLRGVVSCDIECHFHNDTGMAIANAYCALEAGATHIDTSILGIGERNGITPLGALLARMYVTDREYITHKYKLNQLRELENLVADAVEVQIPFNNYITGMCAFTHKAGIHAKAILANPSTYEILKPEDFGMSRYVHVGSRLTGWNAIKSRAEQLNLHLTDAQAKELTVRIKKLADVRTLAMDDVDRVLREYHADLSDADRITKEASA
Question: Which “Activity with hydroxy pyruvate” value [3, 5] does the source give for B2 here?
Answer: 0.004

B3: SpLys4mt2: Lys4 mutant D123N, V125F, Schizosaccharomyces pombe (protein, UniProt Q9Y823 1-418, looked up, variant D123N V125F)
chain: MSVSEANGTETIKPPMNGNPYGPNPSDFLSRVNNFSIIESTLREGEQFANAFFDTEKKIQIAKALDNFGVDYIELTSPVASEQSRQDCEAICKLGLKCKILTHIRCHMDDARVAVETGVDGVNVFIGTSQYLRKYSHGKDMTYIIDSATEVINFVKSKGIEVRFSSEDSFRSDLVDLLSLYKAVDKIGVNRVGIADTVGCATPRQVYDLIRTLRGVVSCDIECHFHNDTGMAIANAYCALEAGATHIDTSILGIGERNGITPLGALLARMYVTDREYITHKYKLNQLRELENLVADAVEVQIPFNNYITGMCAFTHKAGIHAKAILANPSTYEILKPEDFGMSRYVHVGSRLTGWNAIKSRAEQLNLHLTDAQAKELTVRIKKLADVRTLAMDDVDRVLREYHADLSDADRITKEASA
Question: With B3 as the molecule, how does the “Activity with hydroxy pyruvate” value [3, 5] read?
Answer: 0.009

B4: EcLeuA: candidate synthase LeuA, Escherichia coli, GenBank AAC73185 (protein, UniProt P09151 2-523, looked up)
2-isopropylmalate synthase: SQQVIIFDTTLRDGEQALQASLSVKEKLQIALALERMGVDVMEVGFPVSSPGDFESVQTIARQVKNSRVCALARCVEKDIDVAAESLKVAEAFRIHTFIATSPMHIATKLRSTLDEVIERAIYMVKRARNYTDDVEFSCEDAGRTPIADLARVVEAAINAGATTINIPDTVGYTMPFEFAGIISGLYERVPNIDKAIISVHTHDDLGLAVGNSLAAVHAGARQVEGAMNGIGERAGNCSLEEVIMAIKVRKDILNVHTAINHQEIWRTSQLVSQICNMPIPANKAIVGSGAFAHSSGIHQDGVLKNRENYEIMTPESIGLNQIQLNLTSRSGRAAVKHRMDEMGYKESEYNLDNLYDAFLKLADKKGQVFDYDLEALAFIGKQQEEPEHFRLDYFSVQSGSNDIATAAVKLACGEEVKAEAANGNGPVDAVYQAINRITEYNVELVKYSLTAKGHGKDALGQVDIVANYNGRRFHGVGLATDIVESSAKAMVHVLNNIWRAAEVEKELQRKAQHNENNKETV
Question: With B4 as the molecule, how does the “Activity with hydroxy pyruvate” value [3, 4] read?
Answer: 0.022 µmol/min/mg

B5: LiLeuA: candidate synthase LeuA/CimA, Leptospira interogans, GenBank AAN49401 (protein, UniProt Q72RL9 1-501, looked up)
2-isopropylmalate synthase: MDLKDYVRIFDTTLRDGEQCPGAAMTENEKLEIASQLATMKVDIIEAGFPVSSPVQFQAVERIARETEGPMIAALARAMKADIEAASKALQPAKKRRIHTFIASSPIHMKYKLGKEPKEVLKMAVEAVTLCRQFVDDVEFSPEDATRSEPEFLRELCEAVIAAGATTINIPDTVGYTTPAEYGGLFKFLLSNVRGAEKIIFSAHCHNDLGLATANSLAAVQNGARQIECTINGIGERAGNTAMEEVVMAMRTRKDTFGIQTQIKTEEIARASYLVKTITGMLVQPNKAIVGANAFAHESGIHQDGVIKHRETYEIMKPETVGLSSNRMVLGRHSGRAGFKDRIVKLGFSPQVEELEAAYQRFLEIADRKKEIYDEDIRALFSEEARKSTGDRFQLEGFTVSTGTKSTPTAGVRILIDGHVREESATGDGPVDAIYKAIQKTTGMDPEVSRLVISPVTEGQDAMAEASVTLEYKGDRVVGKGSSTDIIEACSRAYISALNRL
Question: Which “Activity with hydroxy pyruvate” value [3, 4] does the source give for B5 here?
Answer: 0.045 µmol/min/mg
